Experimental data: patent US20060116368A1, “4-Piperidinecarboxamide modulators of vanilloid VR1 receptor” (priority 2004, published 2006)

Biological target: T1, Human Vanilloid Receptor 1 (Homo sapiens, UniProt Q8NER1)
T1 construct: expressed in transfected cells; host or cells: HEK 293
Assay: Human VR1 functional assay using FLIPR, Protocol 2
Format: cell-based
Conditions: for % E80 Capsaicin (1.2 uM): test compound-induced calcium response (agonist mode); for % E80 Capsaicin (1.2 uM) / h % I (1 uM): HEK 293 stably transfected hVR1; for h % I (1 uM): inhibition of capsaicin (EC80)-induced calcium response; for IC50: decreased capsaicin (EC80)-induced calcium response, HEK 293 stably transfected hVR1, read-out: h IC50
Description: The functional activity of the test compounds was determined by measuring changes in intracellular calcium concentration using FLIPR™ Calcium-3 Assay Kit and FLIPR™ technology.
HEK 293 cells stably transfected with Human Vanilloid Receptor 1 were maintained at 37° C. and 5% CO2 in: Dulbecco's Modification of Eagle's Medium (4.5 g/L glucose, L-glutamine, sodium pyruvate), 10% FBS, 1× Penicillin-Streptomycin, 400 ug/mL G418 Sulfate. Approximately 24 hours prior to assay, 5,000 cells/well were plated onto a 384-well black clear bottom poly-D-lysine-coated assay plate with a well volume of 25 μL using Titertek Multidrop.
On the day of the assay, the medium was dumped and 50 μL of dye (bulk kit vials diluted with 200 mL buffer) was loaded using Multidrop. Plates were incubated with dye at 37° C. for 30 minutes followed by 30 minutes incubation at room temperature. Then the plates were assayed by FLIPR™ with 2 additions: 12.5 μL test compound with 5 minutes data acquisition followed by 12.5 μL capsaicin at the EC80 concentration.
The EC50 values of test compounds were calculated based on a test compound-induced calcium response at the 5-minute time point. The IC50 values of compounds were calculated based on a decreased capsaicin-induced calcium response in the presence of test compound.

T1 sequence (Q8NER1 whole entry): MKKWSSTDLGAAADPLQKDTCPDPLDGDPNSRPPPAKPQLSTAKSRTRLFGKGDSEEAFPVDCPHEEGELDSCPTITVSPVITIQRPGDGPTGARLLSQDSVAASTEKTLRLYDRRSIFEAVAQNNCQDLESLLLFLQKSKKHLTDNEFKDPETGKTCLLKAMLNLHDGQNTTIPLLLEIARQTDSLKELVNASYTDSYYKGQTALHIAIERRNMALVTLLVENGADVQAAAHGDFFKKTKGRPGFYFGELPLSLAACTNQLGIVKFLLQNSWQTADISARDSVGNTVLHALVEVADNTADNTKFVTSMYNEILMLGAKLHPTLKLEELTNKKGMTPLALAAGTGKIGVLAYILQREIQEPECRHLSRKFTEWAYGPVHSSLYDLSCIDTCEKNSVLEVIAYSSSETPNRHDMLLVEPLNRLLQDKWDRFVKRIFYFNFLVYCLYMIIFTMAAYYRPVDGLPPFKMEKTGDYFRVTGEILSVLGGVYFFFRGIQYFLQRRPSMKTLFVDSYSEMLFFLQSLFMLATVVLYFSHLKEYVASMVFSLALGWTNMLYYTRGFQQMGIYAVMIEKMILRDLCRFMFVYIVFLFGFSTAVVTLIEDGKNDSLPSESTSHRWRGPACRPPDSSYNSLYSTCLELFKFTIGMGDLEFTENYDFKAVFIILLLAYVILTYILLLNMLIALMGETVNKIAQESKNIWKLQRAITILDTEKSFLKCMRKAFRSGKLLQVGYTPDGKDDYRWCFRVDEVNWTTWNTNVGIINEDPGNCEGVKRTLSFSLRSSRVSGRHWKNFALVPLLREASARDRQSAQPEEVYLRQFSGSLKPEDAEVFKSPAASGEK

SMILES | % E80 Capsaicin (1.2 uM) | h % I (1 uM) | IC50
CN1C(=O)COc2ccc(NC(=O)C3CCN(c4cc(F)c(F)c(F)c4)CC3)cc21 [Example 172, 1-(3,4,5-Trifluoro-phenyl)-piperidine-4-carboxylic acid (4-methyl-3-oxo-3,4-dihydro-2H-benzo[1,4]oxazin-6-yl)-amide] | 39% |  | 
O=C1CSc2ccc(NC(=O)C3CCN(c4cc(F)c(F)c(F)c4)CC3)cc2N1 [Example 173, 1-(3,4,5-Trifluoro-phenyl)-piperidine-4-carboxylic acid (3-oxo-3,4-dihydro-2H-benzo[1,4]thiazin-6-yl)-amide] |  | 37% | 1960 nM
O=C(Nc1ccc2c(c1)NC(=O)C(CCO)O2)C1CCN(c2cc(F)c(F)c(F)c2)CC1 (stereo not shown) [Example 174, 1-(3,4,5-Trifluoro-phenyl)-piperidine-4-carboxylic acid [2-(2-hydroxy-ethyl)-3-oxo-3,4-dihydro-2H-benzo[1,4]oxazin-6-yl]-amide] |  | 99% | 4.8 nM
CCOC(=O)C1(C)Oc2ccc(NC(=O)C3CCN(c4cc(F)c(F)c(F)c4)CC3)cc2NC1=O (stereo not shown) [Example 175, 2-Methyl-3-oxo-6-{[1-(3,4,5-trifluoro-phenyl)-piperidine-4-carbonyl]-amino}-3,4-dihydro-2H-benzo[1,4]oxazine-2-carboxylic acid ethyl ester] |  | 54% | 873 nM
CC1(C(=O)O)Oc2ccc(NC(=O)C3CCN(c4cc(F)c(F)c(F)c4)CC3)cc2NC1=O (stereo not shown) [Example 176, 2-Methyl-3-oxo-6-{[1-(3,4,5-trifluoro-phenyl)-piperidine-4-carbonyl]-amino}-3,4-dihydro-2H-benzo[1,4]oxazine-2-carboxylic acid] | 116% |  | 
CCOC(=O)C1Oc2ccc(NC(=O)C3CCN(c4cc(F)c(F)c(F)c4)CC3)cc2NC1=O (stereo not shown) [Example 177, 3-Oxo-6-{[1-(3,4,5-trifluoro-phenyl)-piperidine-4-carbonyl]-amino}-3,4-dihydro-2H-benzo[1,4]oxazine-2-carboxylic acid ethyl ester] | 13% |  | 
O=C(Nc1ccc2c(c1)NC(=O)C(C(=O)O)O2)C1CCN(c2cc(F)c(F)c(F)c2)CC1 (stereo not shown) [Example 178, 3-Oxo-6-{[1-(3,4,5-trifluoro-phenyl)-piperidine-4-carbonyl]-amino}-3,4-dihydro-2H-benzo[1,4]oxazine-2-carboxylic acid] | 80% |  | 
COC(=O)CC1Oc2ccc(NC(=O)C3CCN(c4cc(F)c(F)c(F)c4)CC3)cc2NC1=O (stereo not shown) [Example 179, (3-Oxo-6-{[1-(3,4,5-trifluoro-phenyl)-piperidine-4-carbonyl]-amino}-3,4-dihydro-2H-benzo[1,4]oxazin-2-yl)-acetic acid methyl ester] |  | 54% | 890 nM
O=C(O)CC1Oc2ccc(NC(=O)C3CCN(c4cc(F)c(F)c(F)c4)CC3)cc2NC1=O (stereo not shown) [Example 180, (3-Oxo-6-{[1-(3,4,5-trifluoro-phenyl)-piperidine-4-carbonyl]-amino}-3,4-dihydro-2H-benzo[1,4]oxazin-2-yl)-acetic acid] |  | 5% | 
